{"source": "patent US10206997B2", "about": "“Facilitator-DNA combination vaccine” (priority 2011, dated 2019)", "key": {"[1]": {"test_system": "CD8 T cells co-cultured with peritoneal macrophages or spleen dendritic cells", "experiment": "Co-culture of treated APCs with purified CD8 T cells", "type": "cell-based, mice", "settings": "macrophages and DCs co-culture; pcD-S2 with vs without amiloride", "description": "With respect to co-cultures, pcD-S2 (10 μg/ml) with or without 100 μM amiloride treat APCs, peritoneal macrophage or spleen dendritic cell, were cultured for 2 days. At day 3, purified CD8 T cell (R&D systems, USA) was added into culture with APC:T ratio of 1:5, 1:2, 1:1. At day 8, cells were collected and restimulated with S208-215 (10 μg/ml). PMA+Ionomycin was added as positive control for restimulation."}, "[2]": {"test_system": "CD8+ T effectors", "experiment": "Multi-color flow cytometry of CD8+ T effectors (IFN-γ, perforin, granzyme B)", "type": "in vivo, mice", "settings": "HBsAg restimulation", "description": "(§1) 4 h later, both inguinal lymph nodes were collected.\nWith respect to multi-color flow cytometry, a multi-color panel was set up with anti-CD3, anti-CD8, anti-IFN-γ, anti-perforin and anti-granzyme B. After restimulation in vitro by sAg for 24 h or S208-215 for 12 h, following monensin block for 6 h, splenocyte was fixed, penetrated and stained. Data was collected with BD Aria and analyzed with Flowjo (Tree Star, Ashland, USA)."}, "[3]": {"test_system": "HBsAg", "experiment": "Antibody against HBsAg after footpad immunization", "type": "in vivo, C57B/6 mice"}, "[4]": {"test_system": "RAW264.7, JAWSII and DC2.4 cell lines", "experiment": "Cy5-pEGFP plasmid entry and expression in antigen presenting cell lines", "type": "cell-based", "description": "(§2) With respect to cell culture and inhibiter treatment, RAW264.7 and DC2.4 were cultured in DMEM/10% FCS, and JAWSII was cultured in DMEM/10% FCS with GMCSF (1000 U/ml, Peprotech, USA). Amiloride (Sigma-Aldrich, USA) was prepared as 10 mM solution and was diluted to 1 mM, 100 uM, 10 uM in DMEM medium before treatment. After culture medium was removed, cells were treated with amiloride, MβCD (5 mM, Sigma) or Fillipin (10 ng/ml, sigma) at 37° C. for 1 h. LPS (10 ng/ml, sigma) or 10 ng/ml DNA in DMEM was added at 37° C. for 0.5 h, after wash, culture medium was added and cells were cultured.\nWith respect to plasmid preparation and fluorescence conjugation, pEGFP (Clontech, USA) and pcD-S2 plasmid were prepared from DH5a culture, purified by EndoFree Plasmid Maxi Kit (Qiagen, Germany) and endotoxin was below 10 EU/mg by LAL test. Cy5 was conjugated to plasmid with Minis Label IT Kit (Minis, USA) as manual instructed."}, "[5]": {"test_system": "RAW264.7", "experiment": "APC maturation markers and innate cytokine secretion with pcD-S2", "type": "cell-based", "settings": "pcD-S2 with vs without amiloride", "description": "as §2"}, "[6]": {"test_system": "Cy5-plasmid+ cells in lymph nodes", "experiment": "Cy5-pEGFP plasmid entry in vivo, Cy5+ cells in draining lymph nodes by FACS", "design": "species or system C57B/6 mice", "settings": "hind footpad, 4 hrs", "description": "as §1"}}, "data": [{"smiles": "N=C(N)NC(=O)c1nc(Cl)c(N)nc1N", "note": "[amiloride]", "values": [{"measurement": "percentage of S208-215 specific triple positive CD8 T effectors", "setting": "[1]", "value": "significantly increased"}, {"measurement": "triple positive cells in HBsAg stimulated CD8 response", "setting": "[2]", "value": "triple positive cells could also be observed"}, {"measurement": "most effective dose of amiloride for in vivo treatment", "setting": "[3]; antibody and DTH experiments", "value": 1, "unit": "mM"}, {"measurement": "levels of antibody against HBsAg", "setting": "[3]; footpad immunization, vs pcD-S2 alone, dose dependent", "value": "increased"}, {"measurement": "GFP expression", "setting": "[4]; 1 mM amiloride pre-treatment, after 3 days culture, vs un-treated cells", "value": "significantly higher level of GFP"}, {"measurement": "GFP expression relative to liposome treated cells", "setting": "[4]; 1 mM amiloride, 3 days", "value": "comparable with that of liposome treated cells"}, {"measurement": "uptake of Cy5-labeled pEGFP plasmids", "setting": "[4]; pre-treated with 1 mM amiloride for 1 h, within 2 hrs, vs un-treated cells", "value": "significantly taken up"}, {"measurement": "expression of TNF and IFN-γ", "setting": "[5]; RAW264.7", "value": "higher levels of expression of TNF and IFN-γ"}, {"measurement": "expression of maturation markers CD40, CD80 and CD86", "setting": "[5]; RAW264.7 in vitro", "value": "higher levels of expression of CD40, CD80 and CD86"}, {"measurement": "percentage of Cy5-plasmid+ cells in lymph nodes (LN)", "setting": "[6]; 10 μM amiloride", "value": "increased"}, {"measurement": "percentage of Cy5-plasmid+ cells in lymph nodes (LN)", "setting": "[6]; 100 μM amiloride", "value": "peaked"}, {"measurement": "percentage of Cy5-plasmid+ cells in lymph nodes (LN)", "setting": "[6]; 1 mM amiloride", "value": "decreased"}]}]}
